We go through 27 molecules from ChEMBL document CHEMBL1201862, “PubChem BioAssay data set” (2004).

Activity calls are given as the source filed them.

Among the targets are Cytochrome P450 3A4 (Homo sapiens, UniProt P08684); Cytochrome P450 2C9 (Homo sapiens, UniProt P11712); Cytochrome P450 2D6 (Homo sapiens, UniProt P10635).
The target in test [1] is T1, Heat shock factor protein 1 (Mus musculus, UniProt P38532).
T1 sequence (P38532 whole entry): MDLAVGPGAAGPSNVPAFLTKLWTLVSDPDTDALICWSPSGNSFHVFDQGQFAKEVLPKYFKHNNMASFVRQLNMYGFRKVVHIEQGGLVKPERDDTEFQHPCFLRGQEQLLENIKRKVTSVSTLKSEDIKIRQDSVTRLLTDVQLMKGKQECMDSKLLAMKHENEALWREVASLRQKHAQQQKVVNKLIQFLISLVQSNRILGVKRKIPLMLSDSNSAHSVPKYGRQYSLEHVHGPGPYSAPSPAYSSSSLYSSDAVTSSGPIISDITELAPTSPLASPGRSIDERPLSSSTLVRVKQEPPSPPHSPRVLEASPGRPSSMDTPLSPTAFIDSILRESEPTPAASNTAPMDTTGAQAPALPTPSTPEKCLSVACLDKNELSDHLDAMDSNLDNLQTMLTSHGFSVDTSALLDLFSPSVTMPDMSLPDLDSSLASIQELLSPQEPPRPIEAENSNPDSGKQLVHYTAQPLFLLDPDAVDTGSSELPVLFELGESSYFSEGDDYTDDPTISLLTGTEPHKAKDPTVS
Kind of test: HSF1 potentiators in luciferase reporter cells, confirmation, cell-based, NIH3T3, luminescence, dose retest (AID 435004).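 Further: stress induced by proteasome inhibitor MG132 added 30 min after compound; luciferase reporter driven by HSF1 response element in NIH3T3 cells; actives raise luminescence as potentiators of the MG132 stress response.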 Format: functional.

The next test relates to H9c2. Nature of the test: cells. Format: functional, cell-based. The conditions noted are these: Rattus norvegicus, H9c2, Myocardium.
Test [2] has as its target Luciferin 4-monooxygenase (Photinus pyralis, UniProt P08659). Kind of test: firefly luciferase enzyme inhibitors, dose response, biochemical, luminescence (AID 1891).
The nature of test [3]: Luminescence Cell-Based Dose Confirmation HTS to Identify Inhibitors of Platelet Dense Granule Release. [Related pubchem assays: 1663 (Primary HTS), 1678 (Summary of Project)]. Format: functional.
For another test, the target named is T2, Cytochrome P450 1A2 (Homo sapiens, UniProt P05177).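 Further: PubChem cytochrome P450 panel assay, CYP1A2 panel member.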
T2 sequence (P05177 whole entry): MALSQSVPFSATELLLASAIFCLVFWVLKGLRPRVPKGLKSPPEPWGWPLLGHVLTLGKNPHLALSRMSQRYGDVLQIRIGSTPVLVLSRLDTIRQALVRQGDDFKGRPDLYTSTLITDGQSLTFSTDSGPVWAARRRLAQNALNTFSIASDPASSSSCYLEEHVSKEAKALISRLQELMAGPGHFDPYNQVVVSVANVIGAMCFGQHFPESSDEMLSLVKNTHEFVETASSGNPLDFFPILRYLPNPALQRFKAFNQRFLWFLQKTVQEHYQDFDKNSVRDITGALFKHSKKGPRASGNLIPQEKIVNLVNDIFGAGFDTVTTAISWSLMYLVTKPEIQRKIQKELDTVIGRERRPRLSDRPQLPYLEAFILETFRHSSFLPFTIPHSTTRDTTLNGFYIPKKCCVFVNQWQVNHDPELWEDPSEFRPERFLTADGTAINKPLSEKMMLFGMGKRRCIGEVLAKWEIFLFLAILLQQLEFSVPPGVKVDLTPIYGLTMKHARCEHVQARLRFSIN

Another test has as its target Cytochrome P450 2C19 (Homo sapiens, UniProt P33261). Kind of test: Cytochrome panel assay with activity outcomes. Panel member name: p450-cyp2c19 Compounds with AC50 equal or less than 10 uM are considered active. The class given is functional. The note with it: read-out: AC50.
The target in test [4] is T3, Microphthalmia-associated transcription factor (Homo sapiens, UniProt O75030).
T3 sequence (O75030 whole entry): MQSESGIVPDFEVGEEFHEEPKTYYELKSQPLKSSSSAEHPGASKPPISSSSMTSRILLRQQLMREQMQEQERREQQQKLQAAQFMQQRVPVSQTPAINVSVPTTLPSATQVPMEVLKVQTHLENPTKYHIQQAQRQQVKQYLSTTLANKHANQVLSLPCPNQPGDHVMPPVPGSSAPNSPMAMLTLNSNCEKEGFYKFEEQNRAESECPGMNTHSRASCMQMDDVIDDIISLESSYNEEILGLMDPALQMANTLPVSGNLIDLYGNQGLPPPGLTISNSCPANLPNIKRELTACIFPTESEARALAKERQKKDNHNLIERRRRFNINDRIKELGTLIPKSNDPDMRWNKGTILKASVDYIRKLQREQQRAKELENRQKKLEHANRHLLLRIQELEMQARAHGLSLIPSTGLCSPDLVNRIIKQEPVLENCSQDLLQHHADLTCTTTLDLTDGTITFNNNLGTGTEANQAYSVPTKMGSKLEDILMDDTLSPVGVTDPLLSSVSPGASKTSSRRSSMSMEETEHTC
Nature of the test: TRPM1 promoter luciferase signal decrease, dose response, MITF inhibitor project, cell-based, SK-MEL-5, cherry-picked, set 3 (AID 493073).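 Further: SK-MEL-5 melanoma cells with luciferase driven by the MITF target TRPM1 promoter.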 The class given is functional.
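Wherever IC50 is given: confirmatory concentration-response retest of ultra-high-throughput screening hits for modulation of myocardial damage; cell death induced by hydrogen peroxide oxidative stress; compound pretreatment for 60 min then peroxide exposure for 2 h; potency is for protecting the cells against peroxide damage rather than for killing them.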

Cytochrome P450 2C9, sequence (P11712 whole entry): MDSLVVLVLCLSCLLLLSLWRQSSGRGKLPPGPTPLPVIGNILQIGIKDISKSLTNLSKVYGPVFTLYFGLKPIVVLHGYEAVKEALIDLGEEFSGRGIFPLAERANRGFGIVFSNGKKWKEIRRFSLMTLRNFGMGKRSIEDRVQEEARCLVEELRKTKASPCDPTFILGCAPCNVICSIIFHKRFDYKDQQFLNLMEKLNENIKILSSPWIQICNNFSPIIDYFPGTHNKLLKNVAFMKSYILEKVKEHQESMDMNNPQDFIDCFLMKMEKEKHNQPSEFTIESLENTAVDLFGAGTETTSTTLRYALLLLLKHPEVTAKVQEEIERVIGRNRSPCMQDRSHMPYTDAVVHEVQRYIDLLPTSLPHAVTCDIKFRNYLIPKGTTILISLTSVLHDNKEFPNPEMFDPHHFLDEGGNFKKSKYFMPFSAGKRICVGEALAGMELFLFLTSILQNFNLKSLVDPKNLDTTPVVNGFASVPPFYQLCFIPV
Cytochrome P450 3A4, sequence (P08684 whole entry): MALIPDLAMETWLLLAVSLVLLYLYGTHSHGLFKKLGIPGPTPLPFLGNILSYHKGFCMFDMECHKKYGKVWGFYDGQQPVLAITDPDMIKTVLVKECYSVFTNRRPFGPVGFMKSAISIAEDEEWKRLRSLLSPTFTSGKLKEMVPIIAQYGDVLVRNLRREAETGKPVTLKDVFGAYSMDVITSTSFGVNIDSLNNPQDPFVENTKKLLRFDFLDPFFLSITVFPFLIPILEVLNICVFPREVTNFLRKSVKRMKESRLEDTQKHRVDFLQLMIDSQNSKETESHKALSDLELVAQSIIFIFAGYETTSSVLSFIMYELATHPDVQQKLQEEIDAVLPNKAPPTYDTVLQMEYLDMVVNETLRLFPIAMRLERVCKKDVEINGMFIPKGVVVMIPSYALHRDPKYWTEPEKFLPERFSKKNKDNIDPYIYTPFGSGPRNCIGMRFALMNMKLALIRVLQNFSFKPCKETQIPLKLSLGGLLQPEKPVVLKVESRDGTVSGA
Cytochrome P450 2C19, sequence (P33261 whole entry): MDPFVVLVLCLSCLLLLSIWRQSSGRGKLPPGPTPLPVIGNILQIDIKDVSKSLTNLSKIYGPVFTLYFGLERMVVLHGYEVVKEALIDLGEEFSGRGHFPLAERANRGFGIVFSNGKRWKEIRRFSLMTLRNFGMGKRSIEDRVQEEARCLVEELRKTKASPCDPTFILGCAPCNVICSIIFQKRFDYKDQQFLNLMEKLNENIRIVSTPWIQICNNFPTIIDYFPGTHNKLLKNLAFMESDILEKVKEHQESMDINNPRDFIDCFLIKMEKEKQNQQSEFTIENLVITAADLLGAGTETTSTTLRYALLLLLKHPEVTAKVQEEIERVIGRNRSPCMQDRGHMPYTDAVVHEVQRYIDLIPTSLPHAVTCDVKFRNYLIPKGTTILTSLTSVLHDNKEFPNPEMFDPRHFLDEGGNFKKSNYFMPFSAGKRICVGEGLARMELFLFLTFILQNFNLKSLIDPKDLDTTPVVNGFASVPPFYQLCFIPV
Luciferin 4-monooxygenase, sequence (P08659 whole entry): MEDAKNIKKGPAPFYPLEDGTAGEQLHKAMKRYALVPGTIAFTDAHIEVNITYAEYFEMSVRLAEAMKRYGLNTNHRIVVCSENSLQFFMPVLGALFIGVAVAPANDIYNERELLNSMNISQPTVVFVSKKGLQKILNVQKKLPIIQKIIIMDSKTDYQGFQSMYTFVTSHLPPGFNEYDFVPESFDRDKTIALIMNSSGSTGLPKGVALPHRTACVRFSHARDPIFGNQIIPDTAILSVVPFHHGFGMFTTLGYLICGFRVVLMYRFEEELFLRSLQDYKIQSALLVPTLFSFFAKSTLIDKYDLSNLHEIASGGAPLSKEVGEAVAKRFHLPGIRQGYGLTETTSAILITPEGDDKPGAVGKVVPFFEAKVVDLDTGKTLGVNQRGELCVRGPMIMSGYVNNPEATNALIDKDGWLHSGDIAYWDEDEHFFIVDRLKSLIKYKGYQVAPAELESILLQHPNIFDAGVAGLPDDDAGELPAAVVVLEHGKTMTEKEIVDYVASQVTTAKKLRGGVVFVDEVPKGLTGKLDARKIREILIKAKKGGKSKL
Cytochrome P450 2D6, sequence (P10635 whole entry): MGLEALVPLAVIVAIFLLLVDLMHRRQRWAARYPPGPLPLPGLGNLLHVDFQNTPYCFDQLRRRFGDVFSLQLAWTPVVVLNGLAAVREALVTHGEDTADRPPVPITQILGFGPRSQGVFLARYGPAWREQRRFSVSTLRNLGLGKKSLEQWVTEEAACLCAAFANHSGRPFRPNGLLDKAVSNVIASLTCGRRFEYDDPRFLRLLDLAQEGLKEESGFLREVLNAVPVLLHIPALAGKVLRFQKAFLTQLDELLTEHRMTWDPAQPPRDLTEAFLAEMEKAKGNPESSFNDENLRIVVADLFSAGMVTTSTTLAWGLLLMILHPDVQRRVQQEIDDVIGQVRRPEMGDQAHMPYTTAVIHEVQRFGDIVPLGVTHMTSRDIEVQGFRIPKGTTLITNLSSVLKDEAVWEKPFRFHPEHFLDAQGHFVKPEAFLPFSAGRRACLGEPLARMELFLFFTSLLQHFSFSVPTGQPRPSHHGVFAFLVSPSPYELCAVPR

In the case of `Cc1nc2nc(-c3ccc(F)cc3)cn2nc1C`, the EC50 in test [1] is > 260 µM (inconclusive).

Turning to `COc1ccc(S(=O)(=O)N(C)c2ccc(C(=O)NCc3ccccn3)cc2)cc1`, the EC50 in [1] was > 260 µM (inactive).

Consider `COc1ccc(S(=O)(=O)N/N=c2\oc3c(OC)cccc3cc2S(=O)(=O)c2ccc(C)cc2)cc1OC`, for which the half-maximal effective concentration (EC50) in test [1] is 67.1 µM (active).

Consider `CCn1c(O)c(/C=N/N=C2CCCC2)c2ccc(C3=NNC(=O)CC3)cc21`, for which the IC50 in the test on H9c2 is > 79 µM (inactive). For the same molecule, on Cytochrome P450 3A4, the concentration at half-maximal activity (AC50) is 7.08 µM (inconclusive).

Regarding `COC(=O)c1cnc2c(c(C)nn2C)c1OC`, the EC50 in test [1] was > 260 µM (inactive).

Take `CCC(C)C(=O)Nc1ncc2c(n1)CC(c1cccs1)CC2=O` (stereo unspecified): the values for the EC50 in test [2], in [3] and in [1] were > 112 µM (not active), > 112 µM (not active) and > 260 µM (inactive), respectively.

For `CNC(=O)NC(=S)NC(=O)c1ccc(OC)cc1`, the AC50 at Cytochrome P450 3A4 and on Cytochrome P450 2C9 was 31.6 µM (inconclusive) in each case.

`COc1ccc(Oc2ncc3nc(-c4ccc(OC)cc4)c(=O)n(Cc4cccs4)c3n2)cc1`: the AC50 on Cytochrome P450 1A2 was 15.8 µM (inconclusive); at Cytochrome P450 3A4, 3.16 µM (inconclusive); at Cytochrome P450 2C9, 3.16 µM (inconclusive).

As to `c1ccc(N2CCCC3(CCNCC3)C2)nc1`, the AC50 is 20 µM (inconclusive) at Cytochrome P450 2C19, 25.1 µM (inconclusive) at Cytochrome P450 1A2, 15.8 µM (inconclusive) on Cytochrome P450 3A4 and 39.8 µM (inconclusive) on Cytochrome P450 2C9.

As to `COc1cc(CNn2nnnc2N)ccc1OCc1c(Cl)cccc1Cl`, the AC50 on Cytochrome P450 2C9 is 25.1 µM (inconclusive).

`O=C(Cc1c(O)c2ccccc2oc1=O)c1ccc(C(F)(F)F)cc1`: in [1], the EC50 is > 260 µM (inactive).

For the molecule `CCC/C=C(\CCC)C(NP(=O)(c1ccccc1)c1ccccc1)c1ccc(C(F)(F)F)cc1` (stereo unspecified), the AC50 was 39.8 µM (inconclusive) on Cytochrome P450 2C19 and 12.6 µM (inconclusive) at Cytochrome P450 2C9.

For `CCCCc1c(O)n(-c2ccc(OC)cc2)c(SCC(=O)N2CCOCC2)nc1=O`, in test [1], the EC50 is > 260 µM (inactive).

Turning to `CCCC[C@@H]1C[C@H]1C(NC(=O)c1ccccc1)c1ccc(Cl)cc1` (stereo partly specified), the AC50 is 20 µM (inconclusive) on Cytochrome P450 2D6 and 2.51 µM (inconclusive) at Cytochrome P450 2C9.

As for `N#CCC(CNc1ncc(C(F)(F)F)cc1Cl)OC(=O)c1ccc(Cl)cc1Cl` (stereo unspecified), in test [1], the EC50 is 42.6 µM (active).

Consider `Fc1cccc(F)c1CN1CCN(c2ccc(Cl)cc2)CC1`, for which the EC50 in test [1] is > 260 µM (inactive).

As to `O=C(OCC(=O)N1CCCCCC1)c1nnc(O)c2ccccc12`, the IC50 in the test with H9c2 is > 79 µM (inactive).

On to `O=C(Nc1ccc(Cl)cc1)NC1CCCCC1`, for which the AC50 at Cytochrome P450 2C9 is 12.6 µM (inconclusive).

For the molecule `Cc1cc2[nH]c(=O)c3ccccc3n2n1`, the IC50 in the test with H9c2 was > 79 µM (inactive).

Turning to `Brc1ccc(CSc2ccc3nnc(-c4cccnc4)n3n2)cc1`, the IC50 in the test on H9c2 was > 79 µM (inactive).

Turning to `CC(=O)c1cc(C#N)c(Oc2ccc(F)cc2)nc1C`, the AC50 on Cytochrome P450 2C19 was 10 µM (inconclusive); at Cytochrome P450 2C9, 3.98 µM (inconclusive).

Consider `Cc1ccc(NC(=O)c2sc3ncn(CC(=O)N4CCOCC4)c(=O)c3c2C)c(Br)c1`, for which the EC50 in test [1] is > 260 µM (inactive).

Regarding `O=C1NC2c3c(I)sc(I)c3C(=O)C2O1` (stereo unspecified), the AC50 in [4] was 15.5 µM (active).

As to `COc1ccccc1C(=O)COC(=O)Cn1[nH]c(=O)c2ccccc2c1=O`, the IC50 in the test with H9c2 is 18.5 µM (active).

Turning to `Fc1cccc(-c2nnn3c2nc(Cl)c2ccccc23)c1`, the EC50 in test [1] was 13.6 µM (inconclusive).

For the molecule `CC(=O)NC1C(OCCOc2ccc(Cl)cc2Cl)OC(COC(C)=O)C(OC(C)=O)C1OC(C)=O` (stereo unspecified), the figures for the AC50 at Cytochrome P450 2C19 and on Cytochrome P450 2C9 were 15.8 µM (inconclusive) and 4.47 µM (inconclusive), respectively.

For the molecule `COc1cccc(C(=O)C2=C(O)C(=O)N(c3ccccn3)C2c2ccc(OC)c(OC)c2)c1` (stereo unspecified), the concentration at half-maximal activity (AC50) was 17.8 µM (inconclusive) on Cytochrome P450 3A4 and 15.8 µM (inconclusive) at Cytochrome P450 2C9.
